In patent US9657015B2, “Substituted bicyclic dihydropyrimidinones and their use as inhibitors of neutrophil elastase activity” (Boehringer Ingelheim International GmbH, priority 2014, dated 2017):
In brackets after ≈: the same amount, converted by molar mass.

Assays:
cytochrome P450 2C9 = cytochrome P450 2C9 (Homo sapiens (Human), UniProt P11712); test: Cytochrome P450 2C9 inhibition; format: in vitro ADME; conditions: human liver microsomes, Diclofenac hydroxylation, 37° C.
Source text: Assay for Determination of Cytochrome P450 2C9 Inhibition

cytochrome P450 2C19 = cytochrome P450 2C19 (Homo sapiens (Human), UniProt P33261); test: Cytochrome P450 2C19 inhibition; format: in vitro ADME; conditions: human liver microsomes, (S)-Mephenytoin hydroxylation, 37° C.
Source text: Assay for Determination of Cytochrome P450 2C19 Inhibition

[1] = Aqueous solubility (High Throughput Method); format: physicochemical; conditions: McIlvaine buffer pH 6.8, 2.5% DMSO, 24 h shaking; for solubility at 24 h: McIlvaine buffer pH 6.8 with 2.5% DMSO, aqueous buffer, kinetic from dmso stock
Description: Assay for Determination of Aqueous Solubility (“High Throughput Method”)
Starting from a 10 mM DMSO stock solution, aliquots are diluted with acetonitrile/water (1/1) and McIlvaine buffer pH 6.8, respectively. After 24 h of shaking, the solutions or suspensions are filtered and analyzed by LC-UV. The amount dissolved in buffer is compared to the amount dissolved in the acetonitrile/water (1/1) solution. Solubility is measured from 0.001 to 0.125 mg/ml at a DMSO concentration of 2.5%. If more than 90% of the compound is dissolved in buffer, the value is marked with “>”.

[2] = molecular target: neutrophil elastase in human plasma (Homo sapiens (Human), UniProt P08246); test: Neutrophil elastase inhibitory activity in human plasma; format: biochemical; conditions: human plasma assay (zymosan-stimulated blood plasma), substrate 250 μM, pH 7.5
Description: Assay for the Determination of Neutrophil Elastase Inhibitory Activity in Human Plasma
Citrated blood from human healthy donors is mixed with zymosan suspension and incubated at room temperature. This leads to the stimulation of neutrophils and the release of neutrophil elastase into the plasma. The stimulated blood is centrifuged to generate the neutrophil elastase enriched plasma.
Preparation of Zymosan Working Solution:
Various concentrations of the neutrophil elastase inhibitor are incubated with plasma. […] A dose response curve is generated to calculate the EC50 of the inhibitor.

[3] = Drug transport across human Caco-2 cells; format: in vitro ADME; conditions: human, Caco-2 monolayers, pH 7.2, 37° C.; for Papp A→B at 10 µM: apical-to-basal, read-out: PEAB; for Papp B→A at 10 µM: basal-to-apical, read-out: PEBA
Source text: (§1) Assay for Determination of Drug Transport Across Human Caco-2 Cells
(§2) The assay provides information on the potential of a compound to pass the cell membrane, on the extent of oral absorption as well as on whether the compound is actively transported by uptake and/or efflux transporters. For the measurement of permeability across polarized, confluent human cancer colon carcinoma cells 2 (Caco-2) cell monolayers grown on permeable filter supports are used as the in vitro absorption model.
(§3) Apparent permeability coefficients (PE) of the compounds across the Caco-2 monolayers are measured (pH 7.2, 37° C.) in apical-to-basal (AB) (absorptive) and basal-to-apical (BA) (secretory) transport direction. AB permeability (PEAB) represents drug absorption from the intestine into the blood and BA permeability (PEBA) drug secretion from the blood back into the intestine via both passive permeability as well as active transport mechanisms mediated by efflux and uptake transporters that are expressed on the Caco-2 cells. The compounds are assigned to permeability/absorption classes by comparison of the AB permeabilities with the AB permeabilities of reference compounds with known in vitro permeability and oral absorption in the human. Identical or similar permeabilities in both transport directions indicate passive permeation, vectorial permeability points to additional active transport mechanisms. […] Active transport is concentration-dependently saturable.
(§4) Caco-2 cells (1-2*10^5 cells/cm^2 area) are seeded on filter inserts (Costar transwell polycarbonate or PET filters, 0.4 μm pore size) and cultured (DMEM) for 10 to 25 days. Compounds are dissolved in appropriate solvent (like DMSO, 1-20 mM stock solutions). Stock solutions are diluted with HTP-4 buffer (128.13 mM NaCl, 5.36 mM KCl, 1 mM MgSO4, 1.8 mM CaCl2, 4.17 mM NaHCO3, 1.19 mM Na2HPO4×7H2O, 0.41 mM NaH2PO4×H2O, 15 mM HEPES, 20 mM glucose, pH 7.2) to prepare the transport solutions (typically 10 μM compound, final DMSO<=0.5%). The transport solution (TL) is applied to the apical or basolateral donor side for measuring A-B or B-A permeability (3 filter replicates), respectively. The receiver side contains HTP-4 buffer supplemented with 2% BSA. Samples are collected at the start and end of experiment from the donor and at various time intervals for up to 2 hours also from the receiver side for concentration measurement by LC-MS/MS or scintillation counting. Sampled receiver volumes are replaced with fresh receiver solution.
(§5) The apparent permeability coefficients (PEAB and PEBA) of selected compounds in the Caco-2 drug transport assay described above are listed in Table 9.

[4] = Metabolic stability with human liver microsomes; format: in vitro ADME; conditions: pH 7.6; pooled human liver microsomes, 37° C., 1 μM test compound, 1 mg/ml microsomal protein, NADPH; read-out: t1/2 INVITRO
cytochrome P450 2C8 = cytochrome P450 2C8 (Homo sapiens (Human), UniProt P10632); test: Cytochrome P450 2C8 inhibition; format: in vitro ADME; conditions: human liver microsomes, Amodiaquine deethylation, 37° C.
Source text: Assay for Determination of Cytochrome P450 2C8 Inhibition

[5] = Aqueous solubility (Shaked Flask Method); format: physicochemical; conditions: aqueous buffer, thermodynamic from solid, pH 6.8 (McIlvaine buffer)
Description: Assay for Determination of Aqueous Solubility (“Shaked Flask Method”)
Saturated solutions are prepared in well plates by adding an appropriate volume of selected aqueous media (typically in the range of 0.25-1.5 ml) into each well which contains a known quantity of solid drug substance (typically in the range 0.5-5.0 mg). The wells are shaken or stirred for a predefined time period (typically in a range of 2-24 h) and then filtered using appropriate filter membranes (typically PTFE-filters with 0.45 μm pore size). Filter absorption is avoided by discarding the first few drops of filtrate. The amount of dissolved drug substance is determined by UV spectroscopy or by HPLC with UV-detection. In addition, the pH of the aqueous saturated solution is measured using a glass-electrode pH meter.

[6] = molecular target: Human neutrophil elastase (Homo sapiens (Human), UniProt P08246); test: Human Neutrophil Elastase Assay; format: biochemical; conditions: substrate MeOSuc-Ala-Ala-Pro-Val-AMC 250 μM, pH 7.5, room temperature
Description: The following buffers were used: Compound buffer: 100 mM Tris, 500 mM NaCl, adjusted to pH 7.5; Assay buffer: 100 mM Tris, 500 mM NaCl, adjusted to pH 7.5, containing 0.01% BSA.
Assay conditions: Test compounds were prediluted in DMSO and subsequently in compound buffer (5% DMSO final). […] After inactivation of the enzyme, fluorescence intensities were measured at 380 nm excitation and 460 nm emission wavelengths.
Each plate contains wells with a high value control (DMSO+enzyme+substrate) and wells with a low value control (DMSO+inactivated enzyme+substrate). IC50 values were estimated using a sigmoidal concentration response curve with variable slope. Means of low values were taken as 0%, means of high values as 100%.

[7] = Metabolic stability with human hepatocytes; format: in vitro ADME; conditions: human hepatocyte suspension (typically cryopreserved), 1 μM test compound, six hours, scaled with well stirred model
Description: Assay for the Determination of Metabolic Stability with Human Hepatocytes
The metabolic degradation of the test compound is assayed in a human hepatocyte suspension. Human hepatocytes (typically cryopreserved) are incubated in an appropriate buffer system (e.g. Dulbecco's modified eagle medium plus 3.5 μg glucagon/500 mL, 2.5 mg insulin/500 mL and 3.75 mg/500 mL hydrocortison) containing 5% species serum. Following a (typically) 30 min preincubation in an incubator (37° C., 10% CO2), 5 μl of test compound solution (80 μM; from 2 mM stock solution in DMSO diluted 1:25 with medium) are added into 395 μl hepatocyte suspension (cell density in the range 0.25-5*10^6 cells/mL, typically 1*10^6 cells/mL; final concentration of test compound 1 μM, final DMSO concentration 0.05%). The cells are incubated for six hours (incubator, orbital shaker) and samples (25 μl) are taken at 0, 0.5, 1, 2, 4 and 6 hours. Samples are transferred into acetonitrile and pelleted by centrifugation (5 min) The supernatant is transferred to a new 96-deepwell plate, evaporated under nitrogen and resuspended. The decline of parent compound is analyzed by LC-MS/MS.
The intrinsic clearance CL_[…] is calculated as follows: CL_[…]=Dose/AUC=(C0/CD)/(AUD+clast/k)*1′000/60 (C0: initial concentration in the incubation [μM], CD: cell density of vital cells [10^6 cells/mL], AUD: area under the data [μM*h], clast: concentration of last data point [μM], k: slope of the regression line for parent decline [h^−1])
The calculated in vitro hepatic intrinsic clearance can be scaled up to the intrinsic in vivo hepatic clearance and used to predict hepatic in vivo blood clearance (CL) by the use of a liver model (well stirred model): CL_[…]_INVIVO [ml/min/kg]=(CL_[…] [μL/min/10^6 cells]*hepatocellularity [10^6 cells/g liver]*liver factor [g/kg bodyweight])/1′000 CL [ml/min/kg]=CL_[…]_INVIVO [ml/min/kg]*hepatic blood flow [ml/min/kg]/(CL_[…]_INVIVO [ml/min/kg]+hepatic blood flow [ml/min/kg]) Qh [%]=CL [ml/min/kg]/hepatic blood flow [ml/min/kg]) (Hepatocellularity, human: 120*10^6 cells/g liver; liver factor, human: 25.7 g/kg bodyweight; blood flow, human: 21 ml/(min*kg))

Caco-2 cells = test: Drug transport across human Caco-2 cells; format: in vitro ADME; conditions: Caco-2 monolayers, pH 7.2, 37° C.; for PEAB: apical-to-basal; for PEBA: basal-to-apical
Source text: as §1, §2, §3, §4, §5

Sequence of Human neutrophil elastase (P08246 30-247): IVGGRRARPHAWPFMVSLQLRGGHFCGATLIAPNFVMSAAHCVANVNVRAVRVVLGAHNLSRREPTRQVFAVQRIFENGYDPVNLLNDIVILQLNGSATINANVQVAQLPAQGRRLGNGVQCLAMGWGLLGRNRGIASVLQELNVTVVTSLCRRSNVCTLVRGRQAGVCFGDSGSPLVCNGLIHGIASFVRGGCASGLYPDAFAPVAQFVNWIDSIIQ
Sequence of neutrophil elastase in human plasma (P08246 30-247): as above
Sequence of cytochrome P450 2C8 (P10632 whole entry): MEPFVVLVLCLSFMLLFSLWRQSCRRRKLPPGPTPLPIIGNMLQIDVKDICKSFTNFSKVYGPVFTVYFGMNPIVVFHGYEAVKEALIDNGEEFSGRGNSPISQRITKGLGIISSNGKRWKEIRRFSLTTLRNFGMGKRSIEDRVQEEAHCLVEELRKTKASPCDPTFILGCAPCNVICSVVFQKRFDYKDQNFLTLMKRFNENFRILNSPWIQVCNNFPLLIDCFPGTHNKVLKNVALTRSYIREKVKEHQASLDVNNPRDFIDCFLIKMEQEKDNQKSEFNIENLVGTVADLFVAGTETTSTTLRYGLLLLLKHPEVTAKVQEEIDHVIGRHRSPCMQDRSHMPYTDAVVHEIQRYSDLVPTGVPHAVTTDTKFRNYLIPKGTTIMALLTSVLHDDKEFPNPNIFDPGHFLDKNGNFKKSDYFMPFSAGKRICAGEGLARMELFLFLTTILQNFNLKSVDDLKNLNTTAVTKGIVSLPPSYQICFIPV
Sequence of cytochrome P450 2C9 (P11712 whole entry): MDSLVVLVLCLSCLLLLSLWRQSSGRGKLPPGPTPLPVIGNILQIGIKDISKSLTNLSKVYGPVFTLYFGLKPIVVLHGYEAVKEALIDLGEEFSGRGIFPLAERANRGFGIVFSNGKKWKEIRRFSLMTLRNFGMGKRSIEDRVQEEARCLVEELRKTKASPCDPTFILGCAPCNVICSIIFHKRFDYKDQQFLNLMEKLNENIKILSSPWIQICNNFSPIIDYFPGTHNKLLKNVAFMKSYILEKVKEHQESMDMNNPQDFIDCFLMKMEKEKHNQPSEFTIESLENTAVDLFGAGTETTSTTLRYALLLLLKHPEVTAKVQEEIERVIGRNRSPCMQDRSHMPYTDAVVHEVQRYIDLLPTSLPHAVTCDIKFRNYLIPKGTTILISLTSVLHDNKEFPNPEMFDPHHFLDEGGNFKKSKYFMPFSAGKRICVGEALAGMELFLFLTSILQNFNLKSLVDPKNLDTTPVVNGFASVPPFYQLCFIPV
Sequence of cytochrome P450 2C19 (P33261 whole entry): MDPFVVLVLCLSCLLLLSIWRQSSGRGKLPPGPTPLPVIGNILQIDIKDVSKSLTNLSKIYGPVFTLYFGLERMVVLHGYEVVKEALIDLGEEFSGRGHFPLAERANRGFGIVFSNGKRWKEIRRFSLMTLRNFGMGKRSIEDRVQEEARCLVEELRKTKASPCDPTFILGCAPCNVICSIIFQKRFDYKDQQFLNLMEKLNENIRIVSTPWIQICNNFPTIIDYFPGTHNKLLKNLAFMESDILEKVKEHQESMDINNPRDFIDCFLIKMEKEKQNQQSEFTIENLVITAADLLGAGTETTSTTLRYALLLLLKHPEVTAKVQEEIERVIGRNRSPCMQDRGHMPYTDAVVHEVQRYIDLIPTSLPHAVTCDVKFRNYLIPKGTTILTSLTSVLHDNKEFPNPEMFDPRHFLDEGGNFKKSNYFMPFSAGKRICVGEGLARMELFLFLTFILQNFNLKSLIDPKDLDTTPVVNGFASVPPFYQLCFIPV

Work on `N#Cc1ccc([C@H]2NC(=O)N(c3cccc(C(F)(F)F)c3)C3=C2C(=O)NCC3)cc1` [Example 1A, (R)-4-(2,5-Dioxo-1-(3-(trifluoromethyl)phenyl)-1,2,3,4,5,6,7,8-octahydropyrido[4,3-d]-pyrimidin-4-yl)benzonitrile] yielded an IC50 (cytochrome P450 2C9) greater than 50000 nM, an IC50 (cytochrome P450 2C19) greater than 50000 nM and a solubility at 24 h [1] greater than 100 µg/mL. For the same compound, the IC50 [2] was 3.4 nM, the Papp A→B at 10 µM [3] was 6.6 ×10⁻⁶ cm/s and the Papp B→A at 10 µM [3] was 44 ×10⁻⁶ cm/s. For the same compound, the half-life at 1 μM [4] was greater than 2.17 h, the IC50 (cytochrome P450 2C8) was greater than 50000 nM and the solubility [5] was no less than 10 µg/mL. For the same compound, the IC50 [6] was 3.1 nM.

In the case of `CN1C(=O)N(c2cccc(C(F)(F)F)c2)C2=C(C(=O)NCC2)[C@H]1c1ccc(C#N)cc1-c1cnn(C)c1` [Example 31A, 3-(1-Methyl-1H-pyrazol-4-yl)-4-[(4R)-3-methyl-2,5-dioxo-1-[3-(trifluoromethyl)-phenyl]-1H,2H,3H,4H,5H,6H,7H,8H-pyrido[4,3-d]pyrimidin-4-yl]benzonitrile], the CLhep predicted at 1 μM [7] is reported as 3 mL/min/kg, the IC50 (cytochrome P450 2C9) is reported as greater than 50000 nM and the IC50 (cytochrome P450 2C19) is reported as greater than 50000 nM. The solubility at 24 h [1] was 11 µg/mL (≈ 21.7 µM), the IC50 [2] was less than 1 nM and the Papp A→B at 10 µM [3] was 12 ×10⁻⁶ cm/s. The Papp B→A at 10 µM [3] was 100 ×10⁻⁶ cm/s, the half-life at 1 μM [4] was greater than 2.17 h and the IC50 (cytochrome P450 2C8) was greater than 50000 nM. The solubility [5] was no less than 10 µg/mL and the IC50 [6] was less than 1 nM.

For `CN1C(=O)N(c2cccc(C(F)(F)F)c2)C2=C(C(=O)NCC2)C1c1ccc(C#N)cc1-c1cccnc1` (stereo not drawn) [Example 34, 4-{3-Methyl-2,5-dioxo-1-[3-(trifluoromethyl)phenyl]-1H,2H,3H,4H,5H,6H,7H,8H-pyrido[4,3-d]pyrimidin-4-yl}-3-(pyridin-3-yl)benzonitrile], the CLhep predicted at 1 μM [7] was 4 mL/min/kg, the IC50 (cytochrome P450 2C9) was greater than 50000 nM and the IC50 (cytochrome P450 2C19) was greater than 50000 nM. The IC50 [2] was 1.6 nM, the Papp A→B at 10 µM [3] was 11 ×10⁻⁶ cm/s and the Papp B→A at 10 µM [3] was 79 ×10⁻⁶ cm/s. For the same compound, the IC50 (cytochrome P450 2C8) was greater than 50000 nM and the IC50 [6] was less than 1 nM.

`CN1CCC2=C(C1=O)C(c1ccc(C#N)cc1-c1ccncc1)N(C)C(=O)N2c1cccc(C(F)(F)F)c1` (stereo not drawn) [Example 36.2] gave an Aqueous solubility [1] of 70 µg/mL, an IC50 [2] of 1.8 nM and a PEAB (Caco-2 cells) of 25 ×10⁻⁶ cm/s. The PEBA (Caco-2 cells) was 150 ×10⁻⁶ cm/s and the IC50 [6] was 1.3 nM.

Work on `CN1CCC2=C(C1=O)C(c1ccc(C#N)cc1-c1cncnc1)N(C)C(=O)N2c1cccc(C(F)(F)F)c1` (stereo not drawn) [Example 36.3] yielded an Aqueous solubility [1] of 76 µg/mL, an IC50 [2] of 1.4 nM and a PEAB (Caco-2 cells) of 12 ×10⁻⁶ cm/s. The PEBA (Caco-2 cells) was 110 ×10⁻⁶ cm/s and the IC50 [6] was 1.1 nM.
